In brackets after ≈: the same amount, converted by molar mass. Peptide text beside a SMILES is read from it.
Key:
[1] = system: Saccharomyces cerevisiae S288C; experiment: microbe, parasite or virus in culture; settings: 24 h, read-out: MIC Sc
[2] = system: Schizosaccharomyces pombe 972h-; experiment: microbe, parasite or virus in culture; settings: read-out: MIC Sp
[3] = system: Aspergillus nidulans FGSC A4; experiment: microbe, parasite or virus in culture; settings: FGSCA4, 24 h, read-out: MIC An
Candida albicans SC5314 [4] = experiment: microbe, parasite or virus in culture; settings: SC5314, 24 h, read-out: MIC Ca
[5] = system: Histoplasma capsulatum G217B; experiment: microbe, parasite or virus in culture; settings: 96 h, read-out: MIC Hc
tested bacteria = type: cell-based
[6] = system: Saccharomyces cerevisiae S288C; settings: 24 h
[7] = system: Schizosaccharomyces pombe 972h-
[8] = system: Aspergillus nidulans FGSC A4; settings: 24 h
Candida albicans SC5314 [9] = settings: SC5314, 24 h
[10] = system: Histoplasma capsulatum G217B; settings: 96 h
S. aureus = experiment: Antibacterial MIC, microbroth dilution; type: cell-based; settings: Staphylococcus aureus Newman; CLSI microbroth dilution, cation-adjusted Mueller-Hinton broth, 37 °C, OD600 every 15 min for 20 h, biological triplicate
Method: (§1) The antibacterial activity of the natural peptides and analogs was determined using the standard microbroth dilution method for determining minimal inhibitory concentration (MIC). […] The analog EMP-ER-D2K2 is the only analog that has some, but low, activity against B. subtilis with an MIC of 200 μg/mL.
(§2) Escherichia coli ATCC 25922 was obtained from ATCC and Pseudomonas aeruginosa ATCC 27853 was obtained from Carolina Biologicals. Staphylococcus aureus Newman was the S. aureus strain and the B. subtilis strain was JH642 (trpC2, pheA1).
(§3) Bacteria were grown on LB-agar plates (Fisher, Waltham, MA, USA) overnight at 37 °C, then stored at 4 °C until use. Four colonies were inoculated from the plate into 5 mL cation-adjusted Mueller-Hinton medium (Sigma) and grown to approximately OD600 = 1–2 at 37 °C in a shaking incubator at 250 rpm in preparation for antimicrobial activity testing. MICs were determined in cation-adjusted Mueller-Hinton broth using the microbroth dilution method from the Clinical and Laboratory Standards Institute. Growth was monitored by determining the optical density at 600 nm using a BioTek Synergy HTX multi-mode 96-well plate reader set to incubate at 37 °C and record every 15 min for 20 h. Each assay was performed in biological triplicate.

B. subtilis = experiment: Antibacterial MIC, microbroth dilution; type: cell-based, Bacillus subtilis JH642; settings: B. subtilis JH642; CLSI microbroth dilution, cation-adjusted Mueller-Hinton broth, 37 °C, OD600 every 15 min for 20 h, biological triplicate
Method: as §1, §2, §3

P. aeruginosa = experiment: Antibacterial MIC, microbroth dilution; type: cell-based, Pseudomonas aeruginosa ATCC 27853; settings: P. aeruginosa ATCC 27853; CLSI microbroth dilution, cation-adjusted Mueller-Hinton broth, 37 °C, OD600 every 15 min for 20 h, biological triplicate
Method: as §1, §2, §3

E. coli = experiment: Antibacterial MIC, microbroth dilution; type: cell-based, Escherichia coli ATCC 25922; settings: E. coli ATCC 25922; CLSI microbroth dilution, cation-adjusted Mueller-Hinton broth, 37 °C, OD600 every 15 min for 20 h, biological triplicate
Method: as §1, §2, §3

human erythrocytes [11] = experiment: Hemolytic activity; type: cell-based; settings: 1% human erythrocytes in PBS, 37 °C, 1 h, hemoglobin at 416 nm, 100% = 1% TritonX-100, biological triplicate
Method: Type O+ fresh human blood was purchased from Tennessee Blood Services Corp. (Memphis, TN, USA) in 10% citrate phosphate dextrose 10X phosphate saline solution (PBS) and EDTA (K2). Upon receiving the blood, it was washed using three volumes of 1X PBS + 5 mM glucose. The suspension was centrifuged at 1000× g for 10 min at 4 °C and the supernatant removed. The process was repeated two more times. The sedimented cells were resuspended in the same volume of 1X PBS + 5 mM glucose and stored at 4 °C until use.
[…] The cell suspensions were incubated at 37 °C for 1 h. The unlysed erythrocytes were removed by centrifugation (16,000× g) and the released hemoglobin was determined spectrophotometrically at 416 nm using a NanoDrop spectrophotometer (Thermo Fisher Scientific, Waltham, MA, USA). The control for no release of hemoglobin was a sample of 1% erythrocytes incubated in PBS without peptide. The control for 100% release of hemoglobin was a sample of 1% erythrocyte incubated in PBS with 1% TritonX-100. Each assay was performed in biological triplicate.

human erythrocytes [12] = settings: cited from earlier work
Method: For EMP-ER, Konno reports 100% hemolysis for a concentration of 0.5 μg/mL and about 50% for 0.18 μg/mL [33].

Compound | MIC [1] [µg/mL] | MIC [2] [µg/mL] | MIC [3] [µg/mL] | MIC (Candida albicans SC5314 [4]) [µg/mL] | MIC [5] [µg/mL] | antibacterial activity (tested bacteria) | MIC Sc [6] [µg/mL] | MIC Sp [7] [µg/mL] | MIC An [8] [µg/mL] | MIC Ca (Candida albicans SC5314 [9]) [µg/mL] | MIC Hc [10] [µg/mL] | MIC S. aureus (S. aureus) [µg/mL] | MIC B. subtilis (B. subtilis) [µg/mL] | MIC P. aeruginosa (P. aeruginosa) [µg/mL] | MIC E. coli (E. coli) [µg/mL] | hemolysis (human erythrocytes [11]) [%] | hemolysis (release) (human erythrocytes [12]; at concentrations of 0.5 μg/m) [%] | hemolysis potency relative to mastoparan (human erythrocytes [12])
C[C@@H]1[C@H](O)[C@@H](C)/C=C/C=C/C=C/C=C/C=C/C=C/C=C/[C@H](O[C@@H]2O[C@H](C)[C@@H](O)[C@H](N)[C@@H]2O)C[C@@H]2O[C@](O)(C[C@@H](O)C[C@@H](O)[C@H](O)CC[C@@H](O)C[C@@H](O)CC(=O)O[C@H]1C)C[C@H](O)[C@H]2C(=O)O [Amphotericin B] | 1 (≈ 1.08 µM) | 0.25 (≈ 0.271 µM) | > 16 | 0.5 (≈ 0.541 µM) | 0.5 (≈ 0.541 µM) |  |  |  |  |  |  |  |  |  |  |  |  | 
CC[C@H](C)[C@H](N)C(=O)N[C@@H](CC(N)=O)C(=O)N[C@@H](CCCCN)C(=O)N[C@@H](CC(C)C)C(=O)N[C@H](C(=O)N[C@H](C(=O)N[C@@H](CCCCN)C(=O)N[C@H](C(=O)NCC(=O)N[C@@H](CCCCN)C(=O)N[C@H](C(=O)N[C@H](C(=O)N[C@@H](CO)C(=O)N[C@@H](CC(C)C)C(N)=O)C(C)C)[C@@H](C)CC)C(C)C)[C@@H](C)CC)C(C)C [EMP-AF-KV] (H-INKLVIKVGKIVSL-NH2) |  |  |  |  |  | no antibacterial activity | >256 | >256 | >256 | >256 | >256 |  |  |  |  |  |  | 
CC[C@H](C)[C@H](N)C(=O)N[C@@H](CC(N)=O)C(=O)N[C@@H](CC(C)C)C(=O)N[C@@H](CC(C)C)C(=O)N[C@@H](CCCCN)C(=O)N[C@H](C(=O)N[C@@H](C)C(=O)N[C@@H](CCCCN)C(=O)NCC(=O)N[C@H](C(=O)N[C@H](C(=O)N[C@@H](CCCCN)C(=O)N[C@@H](CO)C(=O)N[C@@H](CC(C)C)C(N)=O)[C@@H](C)CC)[C@@H](C)CC)[C@@H](C)CC [EMP-AF-OR] (H-INLLKIAKGIIKSL-NH2) |  |  |  |  |  |  | >256 | >256 | >256 | >256 | 128 (≈ 84 µM) | 25 | 10 | 200 | 25 | 100 | 75 | one-third
